# Where two headings read alike, the source gives them in different places.
# Key:
# [1] = system: T1, Klebsiella pneumoniae BIDMC 4; set-up: broth microdilution minimal inhibitory concentration against multidrug-resistant clinical isolates; details: KPC-3; inhibitor
# T1 construct: BIDMC 4
# Text: (§1) Using broth microdilution minimal inhibitory concentration (MIC) testing, we determined the MIC of S-F, S-D, and nourseothricin for a large group of multidrug-resistant CRE. These included strains expressing metallo- and/or serine carbapenemases and the pandrug-resistant, NDM-1–expressing Klebsiella pneumoniae Nevada strain, AR-0663 [18]. For these CRE (n = 39), MIC50 and MIC90 for S-F, S-D, and nourseothricin, respectively, were 2 and 4 (range 1 to 4) μM; 0.25 and 0.5 (range 0.25 to 2) μM; and 0.5 and 1 (range 0.25 to 2) μM. The average MIC was 5.6-fold greater for S-F than for S-D and 4.2-fold greater for S-F than for nourseothricin. […] CRE isolates were from the FDA-CDC Antimicrobial Resistance Isolate Bank (AR-Bank) including the Nevada Strain (AR-0636) and the BIDMC clinical collection sequenced as part of the CRE genomics project. A. baumannii isolates were from the AR-Bank and the Multidrug Resistant Organism Repository and Surveillance Network (MRSN) at the Walter Reed Army Institute of Research (WRAIR). Strains are listed in S3 Table. The single ribosomal operon strain, E. coli SQ110, was from the Coli Genetics Stock Center (Yale University, New Haven, CT) and was originally described by Squire and colleagues.
# [2] = system: T2, Klebsiella pneumoniae BIDMC 11; set-up: broth microdilution minimal inhibitory concentration against multidrug-resistant clinical isolates; details: KPC-4; inhibitor
# T2 construct: BIDMC 11
# Text: as §1
# [3] = system: T3, Klebsiella pneumoniae BIDMC 2; set-up: broth microdilution minimal inhibitory concentration against multidrug-resistant clinical isolates; details: KPC-3; inhibitor
# T3 construct: BIDMC 2
# Text: as §1
# [4] = system: T4, Klebsiella oxytoca FDA-CDC 147; set-up: broth microdilution minimal inhibitory concentration against multidrug-resistant clinical isolates; details: KPC; inhibitor
# T4 construct: FDA-CDC 147
# Text: as §1
# [5] = system: T5, Enterobacter cloacae BIDMC 8; set-up: broth microdilution minimal inhibitory concentration against multidrug-resistant clinical isolates; details: KPC-3; inhibitor
# T5 construct: BIDMC 8
# Text: as §1
# [6] = system: T6, Klebsiella pneumoniae BIDMC 10; set-up: broth microdilution minimal inhibitory concentration against multidrug-resistant clinical isolates; details: KPC-3; inhibitor
# T6 construct: BIDMC 10
# Text: as §1
# [7] = system: T7, Escherichia coli BIDMC 9; set-up: broth microdilution minimal inhibitory concentration against multidrug-resistant clinical isolates; details: KPC-2; inhibitor
# T7 construct: BIDMC 9
# Text: as §1
# [8] = system: T8, Escherichia coli BIDMC 15; set-up: broth microdilution minimal inhibitory concentration against multidrug-resistant clinical isolates; details: KPC-2; inhibitor
# T8 construct: BIDMC 15
# Text: as §1
# [9] = system: T9, Escherichia coli BIDMC 3; set-up: broth microdilution minimal inhibitory concentration against multidrug-resistant clinical isolates; details: KPC-2; inhibitor
# T9 construct: BIDMC 3
# Text: as §1
# [10] = system: T10, Klebsiella pneumoniae BIDMC 1; set-up: broth microdilution minimal inhibitory concentration against multidrug-resistant clinical isolates; details: KPC-3; inhibitor
# T10 construct: BIDMC 1
# Text: as §1
# [11] = system: T11, Enterobacter cloacae FDA-CDC 136; set-up: broth microdilution minimal inhibitory concentration against multidrug-resistant clinical isolates; details: KPC; inhibitor
# T11 construct: FDA-CDC 136
# Text: as §1
# [12] = system: T12, Escherichia coli BIDMC 6; set-up: broth microdilution minimal inhibitory concentration against multidrug-resistant clinical isolates; details: KPC-2; inhibitor
# T12 construct: BIDMC 6
# Text: as §1
# [13] = system: T13, Escherichia coli BIDMC 17; set-up: broth microdilution minimal inhibitory concentration against multidrug-resistant clinical isolates; details: KPC-2; inhibitor
# T13 construct: BIDMC 17
# Text: as §1
# [14] = system: T14, Klebsiella pneumoniae BIDMC 5; set-up: broth microdilution minimal inhibitory concentration against multidrug-resistant clinical isolates; details: KPC-3; inhibitor
# T14 construct: BIDMC 5
# Text: as §1
# [15] = system: T15, Klebsiella pneumoniae BIDMC 7; set-up: broth microdilution minimal inhibitory concentration against multidrug-resistant clinical isolates; details: KPC-3; inhibitor
# T15 construct: BIDMC 7
# Text: as §1
# [16] = system: T16, Klebsiella pneumoniae FDA-CDC 117; set-up: broth microdilution minimal inhibitory concentration against multidrug-resistant clinical isolates; details: KPC-3; inhibitor
# T16 construct: FDA-CDC 117
# Text: as §1
# [17] = system: T17, Acinetobacter baumannii FDA-CDC 308; experiment: microbe, parasite or virus in culture; set-up: broth microdilution minimal inhibitory concentration against multidrug-resistant clinical isolates
# T17 construct: FDA-CDC 308
# Text: as §1
# [18] = system: T18, Escherichia coli FDA-CDC 119; experiment: microbe, parasite or virus in culture; set-up: broth microdilution minimal inhibitory concentration against multidrug-resistant clinical isolates; details: FDACDC119, NDM
# T18 construct: FDA-CDC 119
# Text: as §1
# [19] = system: T19, Escherichia coli FDA-CDC 149; experiment: microbe, parasite or virus in culture; set-up: broth microdilution minimal inhibitory concentration against multidrug-resistant clinical isolates; details: FDACDC149, NDM
# T19 construct: FDA-CDC 149
# Text: as §1
# [20] = system: T20, Escherichia coli FDA-CDC 118; experiment: microbe, parasite or virus in culture; set-up: broth microdilution minimal inhibitory concentration against multidrug-resistant clinical isolates; details: FDACDC118, NDM
# T20 construct: FDA-CDC 118
# Text: as §1
# [21] = system: T21, Acinetobacter baumannii FDA-CDC 311; experiment: microbe, parasite or virus in culture; set-up: broth microdilution minimal inhibitory concentration against multidrug-resistant clinical isolates
# T21 construct: FDA-CDC 311
# Text: as §1
# [22] = system: T22, Enterobacter aerogenes FDA-CDC 161; experiment: microbe, parasite or virus in culture; set-up: broth microdilution minimal inhibitory concentration against multidrug-resistant clinical isolates; details: Klebsiella aerogenes, FDACDC161, IMP-4
# T22 construct: FDA-CDC 161
# Text: as §1
# [23] = system: T23, Klebsiella pneumoniae CDC 636; experiment: microbe, parasite or virus in culture; set-up: broth microdilution minimal inhibitory concentration against multidrug-resistant clinical isolates; details: CDC636, NDM
# T23 construct: CDC 636
# Text: as §1
# [24] = system: T24, Escherichia coli FDA-CDC 137; experiment: microbe, parasite or virus in culture; set-up: broth microdilution minimal inhibitory concentration against multidrug-resistant clinical isolates
# T24 construct: FDA-CDC 137
# Text: as §1
# [25] = system: T25, Klebsiella pneumoniae FDA-CDC 34; experiment: microbe, parasite or virus in culture; set-up: broth microdilution minimal inhibitory concentration against multidrug-resistant clinical isolates
# T25 construct: FDA-CDC 34
# Text: as §1
# [26] = system: T26, Escherichia coli FDA-CDC 128; experiment: microbe, parasite or virus in culture; set-up: broth microdilution minimal inhibitory concentration against multidrug-resistant clinical isolates
# T26 construct: FDA-CDC 128
# Text: as §1
# [27] = system: T27, Acinetobacter baumannii FDA-CDC 309; experiment: microbe, parasite or virus in culture; set-up: broth microdilution minimal inhibitory concentration against multidrug-resistant clinical isolates
# T27 construct: FDA-CDC 309
# Text: as §1
# [28] = system: T28, Acinetobacter baumannii FDA-CDC 310; experiment: microbe, parasite or virus in culture; set-up: broth microdilution minimal inhibitory concentration against multidrug-resistant clinical isolates
# T28 construct: FDA-CDC 310
# Text: as §1
# [29] = target: T29, rProtein L28 (50S, near the E-site of the A. baumannii 70S ribosome) (Acinetobacter baumannii, UniProt B7I4T0); experiment: cryo-EM structure of complex; format: binding; details: 0.1 uM ribosome, 100 uM ligand (not seen at 10 uM); second site, 50S near E-site; presumably nonspecific per authors
# T29 construct: gene rpmB; native 50S ribosomal protein within purified 70S ribosome; site near the E-site, contact at H20
# T29 sequence (B7I4T0 whole entry): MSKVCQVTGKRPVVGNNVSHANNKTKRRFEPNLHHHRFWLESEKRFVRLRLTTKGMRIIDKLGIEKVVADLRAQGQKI
smiles,measurement,setting,value
"NCCC[C@H](N)CC(=O)NCCC[C@H](N)CC(=O)NCCC[C@H](N)CC(=O)N[C@@H]1[C@H](O)[C@@H](OC(N)=O)[C@@H](CO)O[C@H]1NC1=N[C@@H]2C(=O)NC[C@@H](O)[C@H]2N1 [S-D, streptothricin D]",S-D MIC,[1],0.25 µM
same,S-D MIC,[2],0.25 µM
same,S-D MIC,[3],0.25 µM
same,S-D MIC,[4],0.25 µM
same,S-D MIC,[5],0.25 µM
same,S-D MIC,[6],0.25 µM
same,S-D MIC,[7],0.5 µM
same,S-D MIC,[8],0.5 µM
same,S-D MIC,[9],0.5 µM
same,S-D MIC,[10],0.25 µM
same,S-D MIC,[11],0.5 µM
same,S-D MIC,[12],0.5 µM
same,S-D MIC,[13],0.5 µM
same,S-D MIC,[14],0.25 µM
same,S-D MIC,[15],0.25 µM
same,S-D MIC,[16],0.25 µM
same,MIC,"[17]; FDACDC308, OXA-71, read-out: S-D MIC",0.25 µM
same,MIC,[18]; read-out: S-D MIC,0.5 µM
same,MIC,[19]; read-out: S-D MIC,0.5 µM
same,MIC,[20]; read-out: S-D MIC,1 µM
same,MIC,"[21]; FDACDC311, OXA-23, OXA-82, read-out: S-D MIC",2 µM
same,MIC,[22]; read-out: S-D MIC,0.5 µM
same,MIC,[23]; read-out: S-D MIC,0.25 µM
same,MIC,"[24]; FDACDC137, NDM-6, read-out: S-D MIC",0.5 µM
same,MIC,"[25]; FDACDC34, IMP-4, read-out: S-D MIC",0.25 µM
same,MIC,"[26]; FDACDC128, NDM-1, read-out: S-D MIC",1 µM
same,MIC,"[27]; FDACDC309, OXA-23, OXA-82, read-out: S-D MIC",2 µM
same,MIC,"[28]; FDACDC310, OXA-23, OXA-82, read-out: S-D MIC",2 µM
"NCCC[C@H](N)CC(=O)N[C@@H]1[C@H](O)[C@@H](OC(N)=O)[C@@H](CO)O[C@H]1N=C1N[C@@H]2[C@H](O)CNC(=O)[C@H]2N1 [S-F, streptothricin F]",S-F MIC,[1],2 µM
same,S-F MIC,[2],2 µM
same,S-F MIC,[3],4 µM
same,S-F MIC,[4],2 µM
same,S-F MIC,[5],4 µM
same,S-F MIC,[6],2 µM
same,S-F MIC,[7],4 µM
same,S-F MIC,[8],2 µM
same,S-F MIC,[9],4 µM
same,S-F MIC,[10],2 µM
same,S-F MIC,[11],2 µM
same,S-F MIC,[12],2 µM
same,S-F MIC,[13],2 µM
same,S-F MIC,[14],2 µM
same,S-F MIC,[15],2 µM
same,S-F MIC,[16],1 µM
same,MIC,"[17]; FDACDC308, OXA-71, read-out: S-F MIC",1 µM
same,MIC,[18]; read-out: S-F MIC,4 µM
same,MIC,[19]; read-out: S-F MIC,4 µM
same,MIC,[20]; read-out: S-F MIC,4 µM
same,MIC,"[21]; FDACDC311, OXA-23, OXA-82, read-out: S-F MIC",8 µM
same,MIC,[22]; read-out: S-F MIC,2 µM
same,MIC,[23]; read-out: S-F MIC,1 µM
same,MIC,"[24]; FDACDC137, NDM-6, read-out: S-F MIC",2 µM
same,MIC,"[25]; FDACDC34, IMP-4, read-out: S-F MIC",2 µM
same,MIC,"[26]; FDACDC128, NDM-1, read-out: S-F MIC",4 µM
same,MIC,"[27]; FDACDC309, OXA-23, OXA-82, read-out: S-F MIC",8 µM
same,MIC,"[28]; FDACDC310, OXA-23, OXA-82, read-out: S-F MIC",8 µM
same,cryo-EM structure of 70S complex,[29],"S-F and S-D overlap at this site, interacting with H20 of rProtein L28"

# From paper PMC10187937, “Streptothricin F is a bactericidal antibiotic effective against highly drug-resistant gram-negative bacteria that interacts with the 30S subunit of the 70S ribosome” (PLOS Biology, 2023)
